Columns and labels:
[1] = tested on: Rattus norvegicus; test: Anti-inflammatory activity in albino Rattus norvegicus (rat) assessed as inhibition of carrageenan-induced paw edema at 10 mg/kg, po administered 30 min prior to carrageenan-challenge measured after 5 hr relative to control; type: functional
[2] = tested on: Rattus norvegicus; test: Anti-inflammatory activity in albino Rattus norvegicus (rat) assessed as inhibition of carrageenan-induced paw edema at 10 mg/kg, po administered 1 hr prior to carrageenan-challenge measured after 3 hr relative to control; type: functional
[3] = tested on: Rattus norvegicus; test: Anti-inflammatory activity in Rattus norvegicus (rat) assessed as inhibition of carrageenan-induced paw edema relative to control; type: functional
[4] = target: Prostaglandin G/H synthase 1 (Homo sapiens) (UniProt P23219); test: Inhibition of COX1 (unknown origin); details: concentration not given here
Prostaglandin G/H synthase 1 (Homo sapiens), sequence (P23219 whole entry): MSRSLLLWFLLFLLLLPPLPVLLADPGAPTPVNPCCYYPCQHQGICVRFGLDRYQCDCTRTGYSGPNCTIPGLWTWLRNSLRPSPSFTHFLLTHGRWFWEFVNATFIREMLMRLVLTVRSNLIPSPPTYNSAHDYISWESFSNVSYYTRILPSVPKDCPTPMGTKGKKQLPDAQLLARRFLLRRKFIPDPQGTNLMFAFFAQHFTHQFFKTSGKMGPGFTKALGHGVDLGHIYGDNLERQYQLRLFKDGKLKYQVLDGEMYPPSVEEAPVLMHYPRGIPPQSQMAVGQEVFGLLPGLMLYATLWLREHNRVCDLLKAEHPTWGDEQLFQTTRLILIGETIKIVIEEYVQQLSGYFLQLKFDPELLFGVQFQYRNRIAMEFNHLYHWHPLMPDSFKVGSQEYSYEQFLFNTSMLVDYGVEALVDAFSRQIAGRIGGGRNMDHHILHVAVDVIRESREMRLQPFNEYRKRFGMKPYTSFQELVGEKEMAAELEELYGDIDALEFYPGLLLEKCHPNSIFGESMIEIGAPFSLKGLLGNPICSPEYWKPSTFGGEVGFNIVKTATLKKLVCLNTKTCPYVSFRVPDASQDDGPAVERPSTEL

[5] = target: T1, Seed linoleate 13S-lipoxygenase-1 (Glycine max) (UniProt P08170); test: Inhibition of Glycine max (soybean) lipooxygenase
T1 sequence (whole entry): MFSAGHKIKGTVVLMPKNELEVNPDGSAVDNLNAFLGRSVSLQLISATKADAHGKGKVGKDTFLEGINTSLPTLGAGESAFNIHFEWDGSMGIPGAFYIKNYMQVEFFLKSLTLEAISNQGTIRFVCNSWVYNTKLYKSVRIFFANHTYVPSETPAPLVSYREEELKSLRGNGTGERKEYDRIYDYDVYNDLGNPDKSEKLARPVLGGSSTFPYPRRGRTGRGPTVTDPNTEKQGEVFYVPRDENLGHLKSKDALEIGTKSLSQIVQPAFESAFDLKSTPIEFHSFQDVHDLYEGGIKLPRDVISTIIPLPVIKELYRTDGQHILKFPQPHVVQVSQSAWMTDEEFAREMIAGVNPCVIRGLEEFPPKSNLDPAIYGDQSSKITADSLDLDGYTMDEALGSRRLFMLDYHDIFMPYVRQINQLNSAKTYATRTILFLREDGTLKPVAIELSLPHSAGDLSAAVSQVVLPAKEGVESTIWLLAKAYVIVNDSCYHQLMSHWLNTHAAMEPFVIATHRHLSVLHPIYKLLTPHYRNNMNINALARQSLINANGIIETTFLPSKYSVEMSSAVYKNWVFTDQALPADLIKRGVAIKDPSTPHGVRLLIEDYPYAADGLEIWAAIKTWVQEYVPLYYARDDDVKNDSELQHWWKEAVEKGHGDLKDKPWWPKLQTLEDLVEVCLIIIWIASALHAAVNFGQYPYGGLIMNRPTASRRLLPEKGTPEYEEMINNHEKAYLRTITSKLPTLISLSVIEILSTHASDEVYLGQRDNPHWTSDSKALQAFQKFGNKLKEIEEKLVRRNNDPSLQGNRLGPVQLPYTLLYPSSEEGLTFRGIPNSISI

[6] = tested on: PBMC; test: Anti-inflammatory activity in Homo sapiens (human) PBMC assessed as inhibition of LPS-induced TNFalpha production; type: functional, cell-based
[7] = tested on: Rattus norvegicus; test: Anti-inflammatory activity in Rattus norvegicus (rat) assessed as inhibition of carrageenan-induced paw edema at […] relative to control; type: functional
[8] = tested on: Rattus norvegicus; test: Anti-inflammatory activity in albino Rattus norvegicus (rat) assessed as inhibition of carrageenan-induced paw edema at 100 mg/kg, po administered 30 min prior to carrageenan-challenge measured after 5 hr relative to control; type: functional
[9] = tested on: Rattus norvegicus; test: Anti-inflammatory activity in Rattus norvegicus (rat) assessed as inhibition of carrageenan-induced paw edema at 0.1 mmoles/kg relative to control; type: functional; details: read-out: INH
[10] = tested on: Rattus norvegicus; test: Anti-inflammatory activity in Rattus norvegicus (rat) assessed as inhibition of carrageenan-induced paw edema at 100 mg/kg, po relative to control; type: functional

COc1ccc2c(c1)c(CC(=O)O)c(C)n2C(=O)c1ccc(Cl)cc1 [INDOMETHACIN]
inhibition in vivo at 10 mg/kg [1]: 71%
inhibition in vivo at 10 mg/kg [2]: 56.5%

N/C(=N/C(=O)Oc1ccccc1)c1cc(=O)oc2ccccc12
inhibition (INH) [3]: >80%

O=c1ccc2ccc(/C=N/O)cc2o1
inhibition [4]: 78.6%

COC(=O)/N=C(/N)c1cc(=O)oc2ccccc12
inhibition [5]: 76%

CN/N=C/c1ccc2ccc(=O)oc2c1
inhibition (INH) [3]: 54%

CCNC(=O)Nc1ccc(-c2cc3ccc(OC(=O)N(CC)CC)cc3oc2=O)cc1
IC50 [6]: 320 nM

Cc1c/c(=N\c2ccc([N+](=O)[O-])cc2)oc2cc(O)ccc12
inhibition [4]: 39%

COc1ccc(-c2cc(-c3c(OC)ccc4c(C)cc(=O)oc34)no2)cc1
inhibition (INH) [7]: 72%

CC(=O)N1N=C(c2cc3cc(Br)ccc3oc2=O)CC1c1ccc([N+](=O)[O-])cc1 (stereo unspecified)
inhibition in vivo at 100 mg/kg [8]: 66.5%

CCOC(=O)c1cc(=O)oc2c3c(c4ccccc4c12)OC(C)(C)[C@@H](O)[C@H]3O
inhibition in vivo at 100 µmol/kg [9]: 59%
inhibition [5]: 100%

CCCC(=O)N/N=C/c1coc2ccccc2c1=O
inhibition (INH) [3]: 80.78%

CCN(CC)C(=O)Oc1ccc2c(C)c(Cc3ccc(F)cc3)c(=O)oc2c1
IC50 [6]: 2400 nM

O=c1oc2ccccc2cc1/N=C/c1ccc(Cl)c(Cl)c1
inhibition in vivo at 100 mg/kg [10]: 60%

CN(C)C(=O)Oc1cc2oc(=O)c(-c3cccnc3)cc2cc1Cl
IC50 [6]: 450 nM

Cc1cc(=O)oc2cc(NCCN(CCN)CCN)ccc12
inhibition [5]: 92.4%

O=c1oc2ccccc2cc1/N=C/c1ccc(Cl)cc1
inhibition in vivo at 100 mg/kg [10]: 75%

CN(C)N/C(=N/O)c1cc(=O)oc2ccccc12
inhibition (INH) [3]: >80%

CCOC(=O)c1cc(=O)oc2c3c(c4ccccc4c12)OC(C)(C)[C@@H](O)[C@H]3OC(=O)c1cccc(Cl)c1
inhibition in vivo at 100 µmol/kg [9]: 59%
inhibition [5]: 100%

COc1ccc2c(C3=NOSN3c3ccccc3)cc(=O)oc2c1
inhibition in vivo at 10 mg/kg [2]: 55.3%

COc1ccc2c(C)cc(=O)oc2c1-c1cc(-c2ccc(Cl)cc2)on1
inhibition (INH) [7]: 68%

O=C(O)c1ccccc1NC(=O)c1cc2cc(Cl)ccc2oc1=O
inhibition (INH) [3]: 54%

CO/N=C/c1ccc2ccc(=O)oc2c1
inhibition (INH) [3]: 54%

CC1=NC(c2cc(=O)oc3ccccc23)NO1 (stereo unspecified)
inhibition [5]: 77%
